Reference: patent publication US11291654B2, “Formulations of cycloserine compounds and applications thereof” (SyneuRx International (Taiwan) Corp., priority 2018, dated 2022)
Like-named read-outs stand apart in the source and are kept apart here.

Type: physicochemical
Protocol: 1. Stress Testing of D-cycloserine Stability test was held with 500 mg of commercially available D-cycloserine from Macleods Pharma, opened and stored under high humidity (>90% RH or 75% RH) at room temperature, a high temperature (40° C. or 60° C.) or a light condition for 10 days. […] In the following experiments, the total impurity was set up to confirm the stability of D-cycloserine.

Appearance (0 day): White Powder | Total Impurity (%) (0 day): 0.59% | Moisture-absorption Weight Gain (%) (25° C., 75% RH, 10 days): 0.25% | Total Impurity (%) (25° C., 75% RH, 10 days): 1.71% | Moisture-absorption Weight Gain (%) (25° C., >90% RH, 10 days): 21.11% | Total Impurity (%) (25° C., >90% RH, 10 days): 86.64% | Appearance (40° C., 10 days): White Powder | Total Impurity (%) (40° C., 10 days): 0.70% | Appearance (60° C., 10 days): White Powder | Total Impurity (%) (60° C., 10 days): 0.66% | Stability (in words) (10 days): relatively stable at 40 °C and 60 °C | Appearance (Light, 10 days): White Powder | Total Impurity (%) (Light, 10 days): 0.96%
SMILES: N[C@H]1CONC1=O (stereo in doubt) [D-cycloserine (Macleods Pharma), 4-amino-3-isoxazolidinone]
